Measurements published in ChEMBL document CHEMBL1125635, “Effect of hydroxyl group configuration in hydroxyethylamine dipeptide isosteres on HIV protease inhibition. Evidence for multiple binding modes” (J Med Chem, 1991).
pIC50, pKi: −log10 of the molar value.

What was measured:
[1] = target: T1, Human immunodeficiency virus type 1 protease (Human immunodeficiency virus 1, UniProt Q72874); assay: In vitro concentration required to inhibit 50% activity of HIV protease was measured; assay type: functional
[2] = target: T1, Human immunodeficiency virus type 1 protease; assay: In vitro concentration required to inhibit 50% activity of HIV protease was measured (exp 2); assay type: functional
[3] = target: T1, Human immunodeficiency virus type 1 protease; assay: In vitro binding affinity against HIV protease was measured

| Compound | pIC50 [1] | pIC50 [2] | pKi [3] |
| --- | --- | --- | --- |
| CC(C)(C)OC(=O)[C@@H]1CCCN1C[C@@H](O)[C@H](Cc1ccccc1)NC(=O)[C@H](CC(N)=O)NC(=O)OCc1ccccc1 | 6.35 | 6.52 |  |
| CC(C)(C)OC(=O)[C@@H]1CCCN1C[C@H](O)[C@H](Cc1ccccc1)NC(=O)[C@H](CC(N)=O)NC(=O)OCc1ccccc1 | 7.29 | 6.85 |  |
| CC(=O)N[C@@H](CO)C(=O)N[C@@H](CC(C)C)C(=O)N[C@@H](CC(N)=O)C(=O)N[C@@H](Cc1ccccc1)[C@H](O)CN1CCC[C@H]1C(=O)OC(C)(C)C | 7.85 |  |  |
| CC[C@H](C)[C@H](NC(=O)[C@@H]1CCCN1C[C@@H](O)[C@H](Cc1ccccc1)NC(=O)[C@H](CC(N)=O)NC(=O)OC(C)(C)C)C(=O)N[C@H](C(=O)OC)C(C)C | 6.07 |  |  |
| CC[C@H](C)[C@H](NC(=O)[C@@H]1CCCN1C[C@H](O)[C@H](Cc1ccccc1)NC(=O)[C@H](CC(N)=O)NC(=O)OC(C)(C)C)C(=O)N[C@H](C(=O)OC)C(C)C | 7.80 |  |  |
| CC(=O)N[C@@H](CO)C(=O)N[C@@H](CC(C)C)C(=O)N[C@@H](CC(N)=O)C(=O)N[C@@H](Cc1ccccc1)[C@@H](O)CN1CCC[C@H]1C(=O)OC(C)(C)C | 7.85 |  |  |
| CC[C@H](C)[C@H](NC(=O)[C@@H]1CCCN1C[C@H](O)[C@H](Cc1ccccc1)NC(=O)[C@H](CC(N)=O)NC(=O)OCc1ccccc1)C(=O)N[C@@H](Cc1ccccc1)C(=O)OC | 8.40 |  |  |
| CC[C@H](C)[C@H](NC(=O)[C@@H]1CCCN1C[C@H](O)[C@H](Cc1ccccc1)NC(=O)[C@H](CC(N)=O)NC(=O)c1ccc2ccccc2n1)C(=O)N[C@@H](Cc1ccccc1)C(=O)OC | 8.64 |  |  |
| CC[C@H](C)[C@H](NC(=O)[C@@H]1CCCN1CC(O)[C@H](Cc1ccccc1)NC(=O)[C@H](CC(N)=O)NC(=O)[C@H](CC(C)C)NC(=O)[C@H](CO)NC(C)=O)C(=O)N[C@H](C(=O)OC)C(C)C (mixture of isomers) | 8.05 |  | 9.22 |
| CC[C@H](C)[C@H](NC(=O)[C@@H]1CCCN1C[C@H](O)[C@H](Cc1ccccc1)NC(=O)[C@H](CC(N)=O)NC(=O)[C@H](CC(C)C)NC(=O)[C@H](CO)NC(C)=O)C(=O)N[C@H](C(=O)OC)C(C)C (stereo in doubt; 1R) | 7.19 |  | 7.70 |
| CC[C@H](C)[C@H](NC(=O)[C@@H]1CCCN1C[C@H](O)[C@H](Cc1ccccc1)NC(=O)[C@H](CC(N)=O)NC(=O)[C@H](CC(C)C)NC(=O)[C@H](CO)NC(C)=O)C(=O)N[C@H](C(=O)OC)C(C)C (stereo in doubt; 1S) | 8.47 |  | 9.62 |
